Experimental data: patent publication US20230322761A1, “DEGRADATION OF BRUTON'S TYROSINE KINASE (BTK) BY CONJUGATION OF BTK INHIBITORS WITH E3 LIGASE LIGAND AND METHODS OF USE” (BEIGENE, LTD., priority 2020, published 2023)

These molecules were tested against T1, BTK (Homo sapiens, UniProt Q06187) (assay: BTK degradation in TMD-8 cells, HTRF assay after 6 h treatment). Conditions: IC50 (DC50) of BTK degradation.
T1 construct: endogenous in cells; host or cells: TMD-8 cells
Format: cell-based
How it was run: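 Remaining BTK was quantified by HTRF in lysates of TMD-8 cells after 6 h exposure to an 8-point, 6-fold compound series (500× stocks in DMSO starting at 1 mM; 0.2% DMSO). Lysis 30 min, antibodies overnight at room temperature, ratio read at 665/620 nm; DC50 fitted with a four-parameter logistic equation.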

T1 sequence (Q06187 whole entry): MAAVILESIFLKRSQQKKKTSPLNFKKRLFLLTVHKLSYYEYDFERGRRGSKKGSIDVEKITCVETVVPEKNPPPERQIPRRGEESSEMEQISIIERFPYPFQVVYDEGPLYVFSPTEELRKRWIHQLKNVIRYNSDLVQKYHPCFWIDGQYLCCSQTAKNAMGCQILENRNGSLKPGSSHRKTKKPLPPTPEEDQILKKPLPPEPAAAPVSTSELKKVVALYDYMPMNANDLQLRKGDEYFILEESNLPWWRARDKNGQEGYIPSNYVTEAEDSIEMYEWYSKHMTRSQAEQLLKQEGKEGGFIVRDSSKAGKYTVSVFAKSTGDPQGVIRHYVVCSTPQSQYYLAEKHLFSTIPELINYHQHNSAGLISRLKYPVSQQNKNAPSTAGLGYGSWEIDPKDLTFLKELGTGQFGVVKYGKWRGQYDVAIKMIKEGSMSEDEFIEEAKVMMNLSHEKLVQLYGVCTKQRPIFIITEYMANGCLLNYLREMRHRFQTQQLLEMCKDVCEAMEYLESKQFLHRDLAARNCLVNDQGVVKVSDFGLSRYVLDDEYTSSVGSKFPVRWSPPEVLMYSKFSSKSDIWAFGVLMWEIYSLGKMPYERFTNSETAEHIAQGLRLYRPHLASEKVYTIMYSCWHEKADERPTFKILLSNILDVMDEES

DC50 [nM] | SMILES
8.07 | COc1cc(OCCCN2CCN(c3ccc(-c4cnc5[nH]nc(-c6ccc([C@@H](C)NC(=O)c7nc(C(C)(C)C)no7)c(C)c6)c5c4)cc3)CC2)ccc1N1CCC(=O)NC1=O [Example 118, (R)-3-(tert-butyl)-N-(1-(4-(5-(4-(4-(3-(4-(2,4-dioxotetrahydropyrimidin-1(2H)-yl)-3-methoxyphenoxy)propyl)piperazin-1-yl)phenyl)-1H-pyrazolo[3,4-b]pyridin-3-yl)-2-methylphenyl)ethyl)-1,2,4-oxadiazole-5-carboxamide]
2.12 | Cc1cc(-c2n[nH]c3ncc(-c4ccc(N5CCN(CCc6ccc(N7CCC(=O)NC7=O)c(C)c6)CC5)cc4)cc23)ccc1[C@@H](C)NC(=O)c1noc(C(C)(C)C)n1 [Example 119, (R)-5-(tert-butyl)-N-(1-(4-(5-(4-(4-(4-(2,4-dioxotetrahydropyrimidin-1(2H)-yl)-3-methylphenethyl)piperazin-1-yl)phenyl)-1H-pyrazolo[3,4-b]pyridin-3-yl)-2-methylphenyl)ethyl)-1,2,4-oxadiazole-3-carboxamide]

The remaining lines, values behind:

SMILES | DC50 [nM]
Cc1cc(-c2n[nH]c3ncc(-c4ccc(N5CCN(CCc6ccc([C@H]7CCC(=O)NC7=O)c(F)c6)CC5)cc4)cc23)ccc1[C@@H](C)NC(=O)c1noc(C(C)(C)C)n1 [Example 113, 5-(tert-butyl)-N—((R)-1-(4-(5-(4-(4-(4-((R)-2,6-dioxopiperidin-3-yl)-3-fluorophenethyl)piperazin-1-yl)phenyl)-1H-pyrazolo[3,4-b]pyridin-3-yl)-2-methylphenyl)ethyl)-1,2,4-oxadiazole-3-carboxamide] | 17
Cc1cc(-c2n[nH]c3ncc(-c4ccc(N5CCN(CCc6ccc([C@@H]7CCC(=O)NC7=O)c(F)c6)CC5)cc4)cc23)ccc1[C@@H](C)NC(=O)c1noc(C(C)(C)C)n1 [Example 114, 5-(tert-butyl)-N—((R)-1-(4-(5-(4-(4-(4-((S)-2,6-dioxopiperidin-3-yl)-3-fluorophenethyl)piperazin-1-yl)phenyl)-1H-pyrazolo[3,4-b]pyridin-3-yl)-2-methylphenyl)ethyl)-1,2,4-oxadiazole-3-carboxamide] | 1.56
Cc1cc(-c2n[nH]c3ncc(-c4ccc(N5CCN(CC6CCN(c7ccc(N8CCC(=O)NC8=O)c(Cl)c7)CC6)CC5)cc4)cc23)ccc1[C@@H](C)NC(=O)c1noc(C(C)(C)C)n1 [Example 115, (R)-5-(tert-butyl)-N-(1-(4-(5-(4-(4-((1-(3-chloro-4-(2,4-dioxotetrahydropyrimidin-1(2H)-yl)phenyl)piperidin-4-yl)methyl)piperazin-1-yl)phenyl)-1H-pyrazolo[3,4-b]pyridin-3-yl)-2-methylphenyl)ethyl)-1,2,4-oxadiazole-3-carboxamide] | 4.87
Cc1cc(-c2n[nH]c3ncc(-c4ccc(N5CCN(CCc6ccc(C7CCC(=O)NC7=O)cc6)CC5)cn4)cc23)ccc1[C@@H](C)NC(=O)c1noc(C(C)(C)C)n1 (stereo partly drawn) [Example 116, 5-(tert-butyl)-N-((1R)-1-(4-(5-(5-(4-(4-(2,6-dioxopiperidin-3-yl)phenethyl)piperazin-1-yl)pyridin-2-yl)-1H-pyrazolo[3,4-b]pyridin-3-yl)-2-methylphenyl)ethyl)-1,2,4-oxadiazole-3-carboxamide] | 1.05
Cc1cc(-c2n[nH]c3ncc(-c4ccc(C5CCN(CCc6ccc(C7CCC(=O)NC7=O)cc6)CC5)nc4)cc23)ccc1[C@@H](C)NC(=O)c1noc(C(C)(C)C)n1 (stereo partly drawn) [Example 117, 5-(tert-butyl)-N-((1R)-1-(4-(5-(6-(1-(4-(2,6-dioxopiperidin-3-yl)phenethyl)piperidin-4-yl)pyridin-3-yl)-1H-pyrazolo[3,4-b]pyridin-3-yl)-2-methylphenyl)ethyl)-1,2,4-oxadiazole-3-carboxamide] | 3.5
